Assay results as given in US7955852B2, “Expansion of renewable stem cell populations” (Gamida Cell Ltd., priority 2002, dated 2011).

Experiments:
[1] = tested on: Lin− c-kit+ Sca-1+ murine hematopoietic precursors; details: cited from earlier work
[2] = tested on: CD34+ cells; assay: Ex-vivo expansion of CD34+ cell enriched cord blood cultures with cytokines; cell counts and FACS surface antigen analysis; assay type: cell-based, human; details: for CD34+ (×10^4): 10^−5M; for CD34+ cells per ml: three weeks, SCF, FLt3, IL-6, IL-3, re-selected
Protocol: Human blood cells were obtained from umbilical cord blood from female patients following full-term, normal delivery (informed consent was obtained).
Samples were collected and processed within 12 hours postpartum. Blood was mixed with 3% Gelatin (Sigma, St. Louis, Mo.), sedimented for 30 minutes to remove most red blood cells. […] The mononuclear cell fraction in the interface layer was collected, washed three times and resuspended in phosphate-buffered saline (PBS) solution (Biological Industries) containing 0.5% bovine serum albumin (BSA, Fraction V; Sigma).
To purify CD34^+ mononuclear cells, the fraction was subjected to two cycles of immuno-magnetic separation using the MiniMACS® or Clinimax® CD34 Progenitor Cell Isolation Kit (Miltenyi Biotec, Auburn, Calif.) as per manufacturer's recommendations.
CD34^+ expressing purified cells above were cultured in 24-well Costar Cell Culture Clusters (Corning Inc., Corning, N.Y.) or culture bags (American Fluoroseal Corp), at a concentration of 10^4 cells/ml in alpha medium (Biological Industries, Beit Haemek, Israel) supplemented with 10% fetal bovine serum (FBS, Biological Industries). The following human recombinant cytokines were added: Thrombopoietin (TPO), interleukin-6 (IL-6), FLT-3 ligand and stem cell factor (SCF), all at final concentrations of 50 ng/ml each, though occasionally IL-3, at a concentration of 20 ng/ml, was added either together or instead of SCF. For non-hematopoietic cell differentiation, FGF, EGF, NGF, VEGF, LIF or Hepatocyte growth factor (HGF) were used to supplement the growth medium, either alone or in various combinations. All cytokines used were purchased from Perpo Tech, Inc. (Rocky Hill, N.J.). The cultures were incubated at 37° C., 5% CO2, in a humidified atmosphere.
At weekly intervals, cell cultures were toped and semi-depopulated and were supplemented with fresh medium, serum and cytokines or supplemented with fresh growth medium, alone. At predetermined time points, cells were harvested, stained with trypan blue, counted, and cell morphology was determined via the use of cytospin (Shandon, UK)-prepared smears stained with May-Grunwald/Giemsa solutions.
CD34^+ purified and whole MNC cultures were prepared and maintained as described above. […] The antagonist was added for a predetermined, limited period, for up to three weeks or continuously during the entire culture period.
Cells were harvested, washed with a PBS solution containing 1% bovine sera albumin (BSA) and 0.1% sodium azide (Sigma), and stained at 4° C. for 60 minutes with fluorescein isothiocyanate or phycoerythrin-conjugated antibodies (all from Immunoquality Products, the Netherlands). The cells were then washed with the same buffer and analyzed by FACS caliber or Facstarplus flow cytometers. Cells were passed at a rate of 1000 cells/second, using saline as the sheath fluid. A 488 nm argon laser beam served as the light source for excitation. Emission of ten thousand cells was measured using logarithmic amplification, and analyzed using CellQuest software. Negative control staining of cells was accomplished with mouse IgG-PE (Dako A/S Glostrup, Denmark) and mouse IgG-FITC (BD Biosciences, Erembodegem, Belgium).
CD34 surface expression on short and long-term cultures initiated either with purified CD34^+ cells or the entire MNC fraction was determined as follows: CD34^+ cells were positively reselected (Miltenyi kit) and counted. Purity was confirmed by subsequent FACS and cell morphology analysis.
Reselected CD34^+ cell subsets were stained for the following combination of antigens: CD34PE/CD38FITC and CD34PE/38, 33, 14, 15, 3, 4, 61, 19 (Lin) FITC. The fraction positive for CD34 and negative for CD38 was defined as CD34^+CD38^−. The fraction positive for CD34 and negative for LIN was defined as CD34^+Lin^− cell fraction.
FACS analysis results are given as percentage values of cells. Absolute numbers of subsets are calculated from the absolute number of CD34^+ cells.

[3] = tested on: CD34+ cells; assay: Colony forming unit (CFU / LTC-CFUc) ability of ex-vivo CD34+ cell cultures; assay type: cell-based, human; details: 10^−5M
Protocol: Total cell counts, numbers of CD34^+ cells and subsets, and CFU numbers are presented as cumulative numbers, with the assumption that the cultures had not been passaged; i.e., the number of cells per ml were multiplied by the number of passages performed.
Cells were cloned in semi-solid, methylcellulose-containing medium supplemented with 2 IU/ml erythropoietin (Eprex, Cilag AG Int., Switzerland), stem cell factor and IL-3, both at 20 ng/ml, and G-CSF and GM-CSF, both at 10 ng/ml (all from Perpo Tech). Cultures were incubated for 14 days at 37° C., 5% CO2 in a humidified atmosphere.
Briefly, the ability of the cultures to maintain self-renewal was measured by determination of the content of colony forming unit cells in the long and extended long-term cultures (LTC-CFUc), as described in the references hereinabove.

[4] = tested on: HL-60 cells; details: cited from earlier work
[5] = TPO, FLT3, IL-6, IL-3, 3 weeks after seeding

Cc1ccc(C2=CCC(C)(C)c3ccc(C#Cc4ccc(C(=O)O)cc4)cc32)cc1 [AGN 193109]
increase in the pre-CFU-S population ([1]; cultured for 7 days): approximately 6 fold
short- or long-term repopulating ability ([1]; cultured for 7 days): virtually no short- or long-term repopulating ability

CC1=C(/C=C/C(C)=C/C=C/C(C)=C/C(=O)O)C(C)(C)CCC1 [ATRA, all-trans-retinoic-acid]
generation of colony-forming cell (CFC) and colony-forming unit-spleen (CFU-S) ([1]; 1 μmol): enhanced

CN1c2ccc([N+](=O)[O-])cc2N=C(c2ccc(C(=O)O)cc2)c2cc3c(cc21)C(C)(C)CCC3(C)C [HX-531, 4-[5H-2,3-(2,5-Dimethyl-2,5-Hexano) 5-Methyl-8-nitrodibenzo [b,e][1,4]diazepin-11-yl) Benzoic acid]
CD34+ (×10^4) ([2]; 5 weeks after seeding): 1636 ×10^4
CD34+ (×10^4) ([2]; 9 weeks after seeding): 4977 ×10^4
CD34+ (×10^4) ([2]; 11 weeks after seeding): 4055 ×10^4
CD34+ (×10^4) [2, 5]: 167 ×10^4
CFU (×10^3), mixed ([3]; 3 weeks after seeding, mixed colonies): (120 mixed) ×10^3
CFU (×10^3) ([3]; 5 weeks after seeding): 8542 ×10^3
CFU (×10^3) ([3]; 9 weeks after seeding): 36557 ×10^3
CFU (×10^3) ([3]; 11 weeks after seeding): 67338 ×10^3
CFU (×10^3) [3, 5]: 1920 ×10^3

CCCOc1cc2c(cc1\C(C)=C/C=C/C(C)=C/C(=O)O)C(C)(C)CCC2(C)C [LGN 100754]
activity on ex vivo expansion of stem/progenitor cells ([2]; 10^−7 M, along with IL-3, 3 and 5 weeks): no activity

NC(=O)c1cccnc1 [Nicotinamide]
CD34+ cells per ml ([2]; 1 mM, TPO): 99 ×10^4 CD34+ cells per ml
CD34+ cells per ml ([2]; 5 mM, TPO): 180 ×10^4 CD34+ cells per ml
CD38 activity and differentiation [4]: inhibited
